Measured values reported in paper PMC3146558 (Cellular and molecular neurobiology, 2011).
Where a name gives a salt, the structure may show the parent alone. Read-outs that look alike come from different tables or passages of the source.

How the values were obtained:
[1] = tested on: morphine induced cAMP overshoot; assay: Inhibition of morphine-induced cAMP overshoot, qHTS of LOPAC library; format: cell-based
HEK-MOR cells = assay: Assay performance in 1536-well plate format; format: cell-based; details: mean ± SD from 288 wells

| Structure (SMILES) | IC50 ([1]; 18 h, read-out: Potency) | other results |
| --- | --- | --- |
| C=CCN1CC[C@]23c4c5ccc(O)c4O[C@H]2/C(=N/NC(=O)c2ccccc2)CC[C@@]3(O)[C@H]1C5 [Naloxone benzoylhydrazone] | 0.41 µM |  |
| CCCCCCCCCCCCCCCCCC(=O)NCC(COP(=O)([O-])OCC[N+](C)(C)C)OCC (racemic) [rac-2-Ethoxy-3-octadecanamido-1-propylphosphocholine] | 18.4 µM |  |
| CCCN(CCC)CCc1cccc2c1CC(=O)N2 [Ropinirole hydrochloride] | 18.4 µM |  |
| Oc1ccc2c3c1O[C@H]1c4oc5ccccc5c4C[C@@]4(O)[C@@H](C2)N(CC2CC2)CC[C@]314 [Naltriben methanesulfonate] | 2.31 µM |  |
| C=CCN1CC[C@]23CCCC[C@H]2[C@H]1Cc1ccc(O)cc13 [Levallorphan tartrate] | 0.33 µM | IC50 ([1]; read-out: IC50): 0.32 µM |
| Oc1ccc2c3c1O[C@H]1c4[nH]c5ccccc5c4C[C@@]4(O)[C@@H](C2)N(CC2CC2)CC[C@]314 [Naltrindole hydrochloride] | 0.82 µM | IC50 ([1]; read-out: IC50): 0.81 µM |
| CCC(=O)c1ccc2c(c1)N(CCCN(C)C)c1ccccc1S2 [Propionylpromazine hydrochloride] | 16.4 µM |  |
| C[C@@]12C(=O)OC(=O)[C@]1(C)[C@H]1CC[C@@H]2O1 [Cantharidin] | 13 µM |  |
| CN1CC[C@]23c4c5ccc(O)c4O[C@H]2[C@@H](O)C=C[C@H]3[C@H]1C5 [Morphine, morphine sulfate pentahydrate] |  | ratio (665nm/620nm), morphine treatment (HEK-MOR cells; NKH 477 10 nM): 1.63 ± 0.13; ratio (665nm/620nm), morphine treatment (HEK-MOR cells; NKH 477 25 nM): 1.08 ± 0.05; ratio (665nm/620nm), morphine treatment (HEK-MOR cells; NKH 477 50 nM): 0.88 ± 0.04 |
| CC1(C(=O)O)C2CCC(O2)C1(C)C(=O)O (centres unmarked) [Cantharidic Acid] | 14.6 µM |  |
| O=C1CC[C@@]2(O)[C@H]3Cc4ccc(O)c5c4[C@@]2(CCN3CC2CC2)[C@H]1O5 [Naltrexone hydrochloride] | 0.12 µM | IC50 ([1]; read-out: IC50): 0.11 µM |
| C=C1C(=O)O[C@H]2[C@H]1CC/C(C)=C/CC[C@@]1(C)O[C@@H]21 [Parthenolide] | 16.4 µM |  |
